Assay results from PubChem BioAssay (NCI).
Several values for one entry are separate records, joined by “and”; a condition that tells them apart may be missing. Equal entries are not always repeated.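 Tested at 5 concentrations; 48 h exposure; 96-well plates; endpoints linearly interpolated, else capped at highest concentration. GI50 is the concentration that inhibits growth by half. TGI marks complete inhibition of growth.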

What was measured:
Assay in all cases: inhibition of tumour cell growth, NCI panel, 48 h
HT29 colon = test system: HT29 colon
MOLT-4 leukemia = test system: MOLT-4 leukemia
RPMI-8226 leukemia = test system: RPMI-8226 leukemia
NCI-H226 lung = test system: NCI-H226 lung
UACC-62 melanoma = test system: UACC-62 melanoma
CCRF-CEM leukemia = test system: CCRF-CEM leukemia
OVCAR-3 ovarian = test system: OVCAR-3 ovarian
HOP-62 NSCLC = test system: HOP-62 NSCLC
M14 melanoma = test system: M14 melanoma
SNB-19 CNS = test system: SNB-19 CNS

SMILES	GI50 (HT29 colon)	TGI (HT29 colon)	GI50 (MOLT-4 leukemia)	TGI (MOLT-4 leukemia)	GI50 (RPMI-8226 leukemia)	TGI (RPMI-8226 leukemia)	GI50 (NCI-H226 lung)	TGI (NCI-H226 lung)	GI50 (UACC-62 melanoma)	TGI (UACC-62 melanoma)	GI50 (CCRF-CEM leukemia)	TGI (CCRF-CEM leukemia)	GI50 (OVCAR-3 ovarian)	TGI (OVCAR-3 ovarian)	GI50 (HOP-62 NSCLC)	TGI (HOP-62 NSCLC)	GI50 (M14 melanoma)	TGI (M14 melanoma)	GI50 (SNB-19 CNS)	TGI (SNB-19 CNS)
COc1cccc(/C=C2\CCc3ccccc3C2=O)c1	5.89 µM	19.4 µM	3.38 µM	25.2 µM	2.89 µM	8.94 µM	17.8 µM	43.1 µM	10.8 µM	25.7 µM	3.04 µM	16.5 µM	12.9 µM	26.2 µM	14.6 µM	29.2 µM	17 µM	39.6 µM	12.4 µM	26.7 µM
O=C(NC(Cc1ccccc1)C(=O)CCl)OCc1ccccc1 (configuration not stated)	3.53 µM	16.5 µM and 37.3 µM	3.56 µM	25.4 µM	2.44 µM		13.4 µM	55.5 µM	4.52 µM	17.7 µM and 21.2 µM	2.34 µM	13.8 µM and 11.6 µM	3.65 µM	11.8 µM and 18.7 µM		30.6 µM and 29.4 µM	4.69 µM	19.2 µM and 23 µM		25.3 µM and 25.1 µM
CC(O)c1ccc(C(O)/C(=N\NC(=O)c2ccncc2)c2nc3ccc([N+](=O)[O-])cc3[nH]c2=O)cc1 (configuration not stated)		> 100 µM		> 100 µM		> 100 µM		> 100 µM		> 100 µM		> 100 µM		> 100 µM		> 100 µM		> 100 µM		> 100 µM
COc1cc2oc(-c3ccc(O)cc3)cc(=O)c2c(OC)c1O		> 100 µM		> 100 µM		> 100 µM		> 100 µM		> 100 µM		> 100 µM		> 100 µM		> 100 µM		> 100 µM		> 100 µM
Cc1cc(N(CCC#N)CCC#N)ccc1CC1N=C(c2ccccc2)OC1=O (configuration not stated)		> 100 µM		> 100 µM		> 100 µM		> 100 µM		> 100 µM		> 100 µM		> 100 µM		> 100 µM		> 100 µM		> 100 µM
CCN(CC)CC(O)c1cc(-c2ccc(Cl)cc2)nc2cc(Cl)ccc12 (configuration not stated)	1.71 µM	3.66 µM	1.68 µM	3.48 µM	2.43 µM	6.15 µM	2.21 µM	7.15 µM	1.62 µM	3.1 µM	2.52 µM	5.56 µM	1.92 µM	4.05 µM	1.93 µM	4.05 µM	1.83 µM	3.44 µM	4.34 µM	16 µM
CCOC(=O)Nc1cc(-c2ccc(C)c(NS(C)(=O)=O)c2)nn2c(C)nnc12	0.809 µM	14.1 µM	2.45 µM	9.94 µM	0.549 µM	4.97 µM	3.93 µM	24.4 µM	0.445 µM	18.5 µM	1.01 µM	14.9 µM	1.36 µM	6.56 µM	1.89 µM	20.5 µM	2.1 µM	> 100 µM	0.799 µM	> 100 µM
Nc1nc(Cl)nc2c1ncn2C1OC(CO)C(O)C1O (configuration not stated)	> 93.3 µM	> 100 µM	0.493 µM	> 41.2 µM	> 100 µM	> 100 µM	> 100 µM	> 100 µM	5.7 µM	> 100 µM	0.264 µM	> 100 µM	> 100 µM	> 100 µM	3.36 µM	> 100 µM	0.999 µM	4.2 µM	2.72 µM	> 100 µM
N/C(=N\C(N)=N\c1nc2ccccc2s1)c1ccnc(Br)c1	3.55 µM	> 100 µM	4.35 µM	> 100 µM	4.29 µM	> 100 µM	15.9 µM	> 100 µM	4.47 µM	> 100 µM	3.7 µM	> 100 µM	3.46 µM	18.9 µM	3.65 µM	57.2 µM	3.39 µM	> 100 µM	7.1 µM	> 100 µM
COc1ccc(NC(=O)C2=CC(=O)c3ccc(O)cc3C2=O)c(OC)c1		> 100 µM		> 100 µM		> 100 µM		> 100 µM		> 100 µM		> 100 µM		> 100 µM		> 100 µM		> 100 µM		> 100 µM
COc1ccc2c(c1)C(=O)c1c-2c(OCCN2CCCCC2)nc2ccc(OC)cc12	0.435 µM	2.7 µM	0.305 µM	1.81 µM	0.474 µM	2.67 µM	0.705 µM	2.82 µM	1.35 µM	6.3 µM	0.197 µM	2.66 µM	0.892 µM	2.67 µM	0.595 µM	11.2 µM	0.904 µM	6.87 µM	0.66 µM	15.1 µM
